Reference: PubChem BioAssay AID248 (DTP/NCI, 2004)
“And” between values parts separate entries of the source, which are not always exact repeats. Equal entries are not always repeated. Inconclusive results and toxic doses are left out. Cut-off read from the data, not from the text of the source: active = T/C of 150% or more; inactive = T/C below 125%.

Tested on: L1210 leukemia ip in BDF1 mice, survival T/C
Experiment: NCI In Vivo Anticancer Drug Screen. Data for tumor model L1210 Leukemia (intraperitoneal) in B6D2F1 (BDF1) mice
Conditions: endpoint: mean survival time, higher = longer survival
How it was run: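 Mice bearing the transplanted tumor received compound or vehicle. Survival of the treated group was divided by that of the vehicle-treated control group to give the ratio.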

[1] = dose: 50.0 mg/kg/injection, schedule: Q01DX009 (ip), vehicle: Klucel (hydroxypropylcellulose) (HPC)
[2] = dose: 100.0 mg/kg/injection, schedule: Q01DX009 (ip), vehicle: Klucel (hydroxypropylcellulose) (HPC)
[3] = dose: 100.0 mg/kg/injection, schedule: Q04DX003 (ip), vehicle: Klucel (hydroxypropylcellulose) (HPC)
[4] = dose: 200.0 mg/kg/injection, schedule: Q01DX009 (ip), vehicle: Klucel (hydroxypropylcellulose) (HPC)
[5] = dose: 200.0 mg/kg/injection, schedule: Q04DX003 (ip), vehicle: Klucel (hydroxypropylcellulose) (HPC)
[6] = dose: 400.0 mg/kg/injection, schedule: Q01DX009 (ip), vehicle: Klucel (hydroxypropylcellulose) (HPC)
[7] = dose: 100.0 mg/kg/injection, schedule: Q01DX001 (ip), vehicle: Klucel (hydroxypropylcellulose) (HPC)
[8] = dose: 200.0 mg/kg/injection, schedule: Q01DX001 (ip), vehicle: Klucel (hydroxypropylcellulose) (HPC)
[9] = dose: 100.0 mg/kg/injection, schedule: Q04DX002 (ip), vehicle: Klucel (hydroxypropylcellulose) (HPC)
[10] = dose: 200.0 mg/kg/injection, schedule: Q04DX002 (ip), vehicle: Klucel (hydroxypropylcellulose) (HPC)
[11] = dose: 400.0 mg/kg/injection, schedule: Q04DX002 (ip), vehicle: Klucel (hydroxypropylcellulose) (HPC)
[12] = dose: 25.0 mg/kg/injection, schedule: Q01DX009 (ip), vehicle: Klucel (hydroxypropylcellulose) (HPC)

Measured: T/C

CCCCCCCCCCCCNC(=O)c1ccc[n+](C)c1
inactive: dose: 6.25 mg/kg/injection, schedule: Q01DX009 (ip), vehicle: acetone 95 % of control | dose: 6.25 mg/kg/injection, schedule: Q04DX003 (ip), vehicle: saline 91 % of control | dose: 12.5 mg/kg/injection, schedule: Q01DX001 (ip), vehicle: saline 105 % of control | dose: 12.5 mg/kg/injection, schedule: Q01DX009 (ip), vehicle: acetone 98 % of control | dose: 12.5 mg/kg/injection, schedule: Q04DX003 (ip), vehicle: saline 92 % of control and 103 % of control | dose: 25.0 mg/kg/injection, schedule: Q01DX001 (ip), vehicle: saline 104 % of control | dose: 25.0 mg/kg/injection, schedule: Q01DX009 (ip), vehicle: acetone 95 % of control | dose: 25.0 mg/kg/injection, schedule: Q04DX003 (ip), vehicle: saline 94 % of control and 91 % of control | dose: 50.0 mg/kg/injection, schedule: Q04DX003 (ip), vehicle: saline 96 % of control

C[n+]1cc(N)cc2ccccc21
inactive: dose: 10.0 mg/kg/injection, schedule: Q01DX001 (ip), vehicle: other 105 % of control | dose: 20.0 mg/kg/injection, schedule: Q01DX001 (ip), vehicle: other 105 % of control | dose: 40.0 mg/kg/injection, schedule: Q01DX001 (ip), vehicle: other 109 % of control

c1ccc(CC(c2ccccc2)(c2ccccc2)c2ccccc2)cc1
inactive: dose: 25.6 mg/kg/injection, schedule: Q04DX002 (ip), vehicle: saline with Tween-80 89 % of control | dose: 64.0 mg/kg/injection, schedule: Q04DX002 (ip), vehicle: saline with Tween-80 93 % of control | dose: 160.0 mg/kg/injection, schedule: Q04DX002 (ip), vehicle: saline with Tween-80 93 % of control | dose: 400.0 mg/kg/injection, schedule: Q04DX002 (ip), vehicle: saline with Tween-80 112 % of control

COc1ccc(/C=C/C(=O)c2ccccc2)cc1OC
inactive: [1] 92 % of control and 103 % of control | [2] 105 % of control and 108 % of control | [3] 104 % of control | dose: 100.0 mg/kg/injection, schedule: Q04DX003 (ip), vehicle: water 93 % of control | [4] 99 % of control and 95 % of control | [5] 98 % of control | dose: 200.0 mg/kg/injection, schedule: Q04DX003 (ip), vehicle: water 102 % of control | [6] 93 % of control | dose: 400.0 mg/kg/injection, schedule: Q04DX003 (ip), vehicle: Klucel (hydroxypropylcellulose) (HPC) 91 % of control | dose: 400.0 mg/kg/injection, schedule: Q04DX003 (ip), vehicle: water 96 % of control

CCCCCCCCOC(=O)CCC(N)C(=O)O (configuration not stated)
inactive: [7] 107 % of control | [2] 93 % of control | [8] 102 % of control | [4] 97 % of control | dose: 400.0 mg/kg/injection, schedule: Q01DX001 (ip), vehicle: Klucel (hydroxypropylcellulose) (HPC) 98 % of control | [6] 97 % of control

Cn1ccnc1CC(C)(O)c1ccccc1 (configuration not stated)
inactive: [7] 92 % of control | [2] 97 % of control and 98 % of control | [9] 96 % of control | [8] 97 % of control | [4] 108 % of control and 88 % of control | [10] 108 % of control | [6] 102 % of control | [11] 103 % of control

CC(C)(C)[O][Pb]([c]1ccccc1)([c]1ccccc1)[c]1ccccc1
inactive: dose: 1.56 mg/kg/injection, schedule: Q01DX009 (ip), vehicle: saline with Tween-80 91 % of control

CCOC(CSC)OCC
inactive: dose: 100.0 mg/kg/injection, schedule: Q01DX009 (sc), vehicle: olive oil, sesame oil, peanut oil 99 % of control | dose: 100.0 mg/kg/injection, schedule: Q04DX003 (sc), vehicle: olive oil, sesame oil, peanut oil 102 % of control | dose: 200.0 mg/kg/injection, schedule: Q01DX009 (sc), vehicle: olive oil, sesame oil, peanut oil 94 % of control | dose: 200.0 mg/kg/injection, schedule: Q04DX003 (sc), vehicle: olive oil, sesame oil, peanut oil 96 % of control | dose: 400.0 mg/kg/injection, schedule: Q01DX009 (sc), vehicle: olive oil, sesame oil, peanut oil 91 % of control | dose: 400.0 mg/kg/injection, schedule: Q04DX003 (sc), vehicle: olive oil, sesame oil, peanut oil 94 % of control

Cc1ccc(Cl)cc1NC(=O)NCCCl
inactive: [3] 113 % of control | [5] 93 % of control

CC1(C)N=C(N)N=C(N)N1c1ccc(CCc2ccccc2)c(Cl)c1
inactive: dose: 3.13 mg/kg/injection, schedule: Q01DX009 (ip), vehicle: Klucel (hydroxypropylcellulose) (HPC) 100 % of control | dose: 6.25 mg/kg/injection, schedule: Q01DX009 (ip), vehicle: Klucel (hydroxypropylcellulose) (HPC) 104 % of control | dose: 12.5 mg/kg/injection, schedule: Q01DX009 (ip), vehicle: Klucel (hydroxypropylcellulose) (HPC) 104 % of control | dose: 12.5 mg/kg/injection, schedule: Q04DX003 (ip), vehicle: Klucel (hydroxypropylcellulose) (HPC) 93 % of control | [12] 107 % of control | dose: 25.0 mg/kg/injection, schedule: Q04DX003 (ip), vehicle: Klucel (hydroxypropylcellulose) (HPC) 93 % of control | dose: 50.0 mg/kg/injection, schedule: Q04DX003 (ip), vehicle: Klucel (hydroxypropylcellulose) (HPC) 94 % of control

CC1CCN1Cc1ccccc1 (configuration not stated)
inactive: dose: 12.5 mg/kg/injection, schedule: Q04DX003 (ip), vehicle: acetone 98 % of control | dose: 25.0 mg/kg/injection, schedule: Q04DX003 (ip), vehicle: acetone 104 % of control | dose: 50.0 mg/kg/injection, schedule: Q04DX003 (ip), vehicle: acetone 104 % of control | dose: 75.0 mg/kg/injection, schedule: Q01DX009 (ip), vehicle: saline 94 % of control

O=C(COc1ccc(Cl)cc1)Oc1c(Cl)c(Cl)c(Cl)c(Cl)c1Cl
inactive: [9] 97 % of control | [10] 115 % of control | [11] 104 % of control

O=C(CCCC(=O)N/N=C/c1cc(Cl)ccc1O)N/N=C\c1cc(Cl)ccc1O
inactive: dose: 50.0 mg/kg/injection, schedule: Q01DX001 (ip), vehicle: saline 98 % of control | dose: 100.0 mg/kg/injection, schedule: Q01DX001 (ip), vehicle: saline 93 % of control | dose: 200.0 mg/kg/injection, schedule: Q01DX001 (ip), vehicle: saline 96 % of control | dose: 400.0 mg/kg/injection, schedule: Q01DX001 (ip), vehicle: saline 98 % of control

O=[N+]([O-])c1ccc2c(c1)-c1ccccc1/C2=C1\c2ccccc2-c2cc([N+](=O)[O-])ccc21
inactive: dose: 100.0 mg/kg/injection, schedule: Q01DX005 (ip), vehicle: Klucel (hydroxypropylcellulose) (HPC) 105 % of control | [9] 90 % of control | dose: 200.0 mg/kg/injection, schedule: Q01DX005 (ip), vehicle: Klucel (hydroxypropylcellulose) (HPC) 91 % of control | [10] 104 % of control | dose: 400.0 mg/kg/injection, schedule: Q01DX005 (ip), vehicle: Klucel (hydroxypropylcellulose) (HPC) 91 % of control | [11] 96 % of control

NC(=S)N/N=C/c1cccnc1
inactive: [12] 92 % of control | [1] 87 % of control | dose: 50.0 mg/kg/injection, schedule: Q04DX002 (ip), vehicle: Klucel (hydroxypropylcellulose) (HPC) 98 % of control | [2] 89 % of control | [9] 95 % of control and 107 % of control | [10] 95 % of control

c1ccc([S+]([CH2][Hg][CH2][S+](c2ccccc2)c2ccccc2)c2ccccc2)cc1
inactive: dose: 5.0 mg/kg/injection, schedule: Q01DX001 (ip), vehicle: saline 92 % of control | dose: 10.0 mg/kg/injection, schedule: Q01DX001 (ip), vehicle: saline 109 % of control | dose: 20.0 mg/kg/injection, schedule: Q01DX001 (ip), vehicle: saline 119 % of control
